# Experimental data reported in patent US11795169B2, “MAP4K4 inhibitors” (IMPERIAL COLLEGE INNOVATIONS LIMITED, priority 2017, dated 2023).
# Like-named read-outs stand apart in the source and are kept apart here.
# How the values were obtained:
# [1] = target: human MAP4K4 kinase domain (Homo sapiens (Human), UniProt O95819); experiment: MAP4K4 kinase activity, CisBio HTRF Transcreener ADP assay; type: biochemical
# Text: (§1) Compounds of the present invention were screened for their inhibitory activity against MAP4K4, versus selected off-target hits found with early members of this chemical series. MAP4K4 kinase activity was monitored using the CisBio HTRF Transcreener ADP assay, acompetitive immunoassay with a reproducible Z′>0.6. In the detection step, endogenous ADP and d2-labeled ADP compete for binding an anti-ADP monoclonal antibody labelled with Eu^3+ cryptate. A ratiometric fluorescent read-out is used at 665 and 620 nm. […] Assays were run in Greiner low volume plates with a final reaction volume of 10 μl. The MAP4K4 inhibition data are provided in Table 33 below for selected compounds of the present invention. The data has been categorised based on the IC50 value of the compound as “A”, “B” or “C”.
# MINK1/MAP4K6 = MINK1/MAP4K6 (Homo sapiens (Human), UniProt Q8N4C8); experiment: Kinase selectivity panel: MINK1/MAP4K6; type: biochemical; details: read-out: pIC50 MINK1/MAP4K6 (converted)
# Text: as §1
# (§2) The data in Table 34 also provides the fold selectivity of the two compounds in favour of MAP4K4 over the tested kinase. The fold selectivity is indicated in parenthesis.
# TNIK/MAP4K7 = TNIK/MAP4K7 (Homo sapiens (Human), UniProt Q9UKE5); experiment: Kinase selectivity panel: TNIK/MAP4K7; type: biochemical; details: read-out: pIC50 TNIK/MAP4K7 (converted)
# Text: as §1, §2
# GCK/MAP4K2 = GCK/MAP4K2 (Homo sapiens (Human), UniProt Q12851); experiment: Kinase selectivity panel: GCK/MAP4K2; type: biochemical; details: for IC50: read-out: pIC50 GCK/MAP4K2 (converted)
# Text: as §1, §2
# GLK/MAP4K3 = GLK/MAP4K3 (Homo sapiens (Human), UniProt Q8IVH8); experiment: Kinase selectivity panel: GLK/MAP4K3; type: biochemical; details: for IC50: read-out: pIC50 GLK/MAP4K3 (converted)
# Text: as §1, §2
# KHS/MAP4K5 = KHS/MAP4K5 (Homo sapiens (Human), UniProt Q9Y4K4); experiment: Kinase selectivity panel: KHS/MAP4K5; type: biochemical; details: for IC50: read-out: pIC50 KHS/MAP4K5 (converted)
# Text: as §1, §2
# ABL1 = ABL1 (Homo sapiens (Human), UniProt P00519); experiment: Kinase selectivity panel: ABL1; type: biochemical; details: for IC50: read-out: pIC50 ABL1 (converted)
# Text: as §1, §2
# Aurora B = Aurora B (Homo sapiens (Human), UniProt Q96GD4); experiment: Kinase selectivity panel: Aurora B; type: biochemical; details: for IC50: read-out: pIC50 Aurora B (converted)
# Text: as §1, §2
# FLT3 = FLT3 (Homo sapiens (Human), UniProt P36888); experiment: Kinase selectivity panel: FLT3; type: biochemical; details: for IC50: read-out: pIC50 FLT3 (converted)
# Text: as §1, §2
# GSK3β = GSK3β (Homo sapiens (Human), UniProt P49841); experiment: Kinase selectivity panel: GSK3β; type: biochemical; details: for IC50: read-out: pIC50 GSK3β (converted)
# Text: as §1, §2
# MLK1/MAP3K9 = MLK1/MAP3K9 (Homo sapiens (Human), UniProt P80192); experiment: Kinase selectivity panel: MLK1/MAP3K9; type: biochemical; details: for IC50: read-out: pIC50 MLK1/MAP3K9 (converted)
# Text: as §1, §2
# MLK3/MAP3K11 = MLK3/MAP3K11 (Homo sapiens (Human), UniProt Q16584); experiment: Kinase selectivity panel: MLK3/MAP3K11; type: biochemical; details: for IC50: read-out: pIC50 MLK3/MAP3K11 (converted)
# Text: as §1, §2
# VEGFR = experiment: Kinase selectivity panel: VEGFR; type: biochemical
# Experimental: (§3) In the detection step, endogenous ADP and d2-labeled ADP compete for binding an anti-ADP monoclonal antibody labelled with Eu^3+ cryptate. […] Assays were run in Greiner low volume plates with a final reaction volume of 10 μl.
# (§4) The fold selectivity is indicated in parenthesis.
# [2] = tested on: CorV.4U cardiomyocytes (hiPSC-CMs); experiment: Protection of CorV.4U cardiomyocytes from H2O2 or menadione (luminescent cell viability assay, human cardiac troponin assay); type: cell-based; details: Homo sapiens, Cardiomyocyte; read-out: EC50, protection of human cardiomyocytes
# Text: To substantiate the hypothesis that pharmacological inhibition of MAP4K4 would confer resistance to cell death in human cardiomyocytes, cytoprotection was next assessed using hiPSC-CMs.
# NUAK = experiment: Kinase selectivity panel: NUAK; type: biochemical
# Experimental: as §3, §4
# [3] = ATP at Km (10 μM), 0.5 nM kinase domain, 2 h, read-out: MAP4K4
# [4] = read-out: pIC50 MAP4K4 (converted)
# GLK/MAP4K3, sequence (Q8IVH8 whole entry): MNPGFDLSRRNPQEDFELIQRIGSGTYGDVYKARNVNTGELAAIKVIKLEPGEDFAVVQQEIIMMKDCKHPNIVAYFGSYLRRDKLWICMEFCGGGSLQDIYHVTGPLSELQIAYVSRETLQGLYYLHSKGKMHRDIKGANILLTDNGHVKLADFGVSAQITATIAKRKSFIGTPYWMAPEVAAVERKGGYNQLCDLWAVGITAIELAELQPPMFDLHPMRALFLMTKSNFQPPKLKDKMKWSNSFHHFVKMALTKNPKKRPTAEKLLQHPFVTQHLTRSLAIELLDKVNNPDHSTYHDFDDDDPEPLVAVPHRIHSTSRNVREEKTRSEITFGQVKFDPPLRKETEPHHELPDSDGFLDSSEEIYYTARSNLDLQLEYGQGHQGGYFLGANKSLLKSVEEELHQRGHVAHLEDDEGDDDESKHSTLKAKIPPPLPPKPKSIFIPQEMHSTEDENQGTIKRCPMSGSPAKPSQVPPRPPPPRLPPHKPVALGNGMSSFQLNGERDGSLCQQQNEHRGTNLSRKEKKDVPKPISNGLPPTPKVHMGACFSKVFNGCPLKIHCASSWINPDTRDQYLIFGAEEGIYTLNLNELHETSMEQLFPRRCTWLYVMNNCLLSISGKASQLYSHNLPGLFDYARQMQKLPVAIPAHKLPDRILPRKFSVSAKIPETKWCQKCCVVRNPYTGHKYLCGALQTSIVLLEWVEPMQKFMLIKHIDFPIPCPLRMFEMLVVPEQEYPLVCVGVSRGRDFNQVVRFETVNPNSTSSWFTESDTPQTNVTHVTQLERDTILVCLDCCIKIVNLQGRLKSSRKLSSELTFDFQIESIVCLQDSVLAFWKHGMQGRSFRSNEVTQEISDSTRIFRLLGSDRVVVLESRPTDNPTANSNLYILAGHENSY
# Aurora B, sequence (Q96GD4 whole entry): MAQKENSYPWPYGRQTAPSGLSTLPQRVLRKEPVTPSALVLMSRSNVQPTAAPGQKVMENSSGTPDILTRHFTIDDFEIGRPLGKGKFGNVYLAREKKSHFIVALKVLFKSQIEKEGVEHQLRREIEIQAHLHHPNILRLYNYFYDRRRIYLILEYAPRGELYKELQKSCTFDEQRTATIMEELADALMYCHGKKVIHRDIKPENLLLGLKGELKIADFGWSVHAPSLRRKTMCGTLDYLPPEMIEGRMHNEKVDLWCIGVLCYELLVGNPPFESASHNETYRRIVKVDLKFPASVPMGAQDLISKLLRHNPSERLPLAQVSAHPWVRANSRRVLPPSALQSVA
# FLT3, sequence (P36888 27-993, species assumed): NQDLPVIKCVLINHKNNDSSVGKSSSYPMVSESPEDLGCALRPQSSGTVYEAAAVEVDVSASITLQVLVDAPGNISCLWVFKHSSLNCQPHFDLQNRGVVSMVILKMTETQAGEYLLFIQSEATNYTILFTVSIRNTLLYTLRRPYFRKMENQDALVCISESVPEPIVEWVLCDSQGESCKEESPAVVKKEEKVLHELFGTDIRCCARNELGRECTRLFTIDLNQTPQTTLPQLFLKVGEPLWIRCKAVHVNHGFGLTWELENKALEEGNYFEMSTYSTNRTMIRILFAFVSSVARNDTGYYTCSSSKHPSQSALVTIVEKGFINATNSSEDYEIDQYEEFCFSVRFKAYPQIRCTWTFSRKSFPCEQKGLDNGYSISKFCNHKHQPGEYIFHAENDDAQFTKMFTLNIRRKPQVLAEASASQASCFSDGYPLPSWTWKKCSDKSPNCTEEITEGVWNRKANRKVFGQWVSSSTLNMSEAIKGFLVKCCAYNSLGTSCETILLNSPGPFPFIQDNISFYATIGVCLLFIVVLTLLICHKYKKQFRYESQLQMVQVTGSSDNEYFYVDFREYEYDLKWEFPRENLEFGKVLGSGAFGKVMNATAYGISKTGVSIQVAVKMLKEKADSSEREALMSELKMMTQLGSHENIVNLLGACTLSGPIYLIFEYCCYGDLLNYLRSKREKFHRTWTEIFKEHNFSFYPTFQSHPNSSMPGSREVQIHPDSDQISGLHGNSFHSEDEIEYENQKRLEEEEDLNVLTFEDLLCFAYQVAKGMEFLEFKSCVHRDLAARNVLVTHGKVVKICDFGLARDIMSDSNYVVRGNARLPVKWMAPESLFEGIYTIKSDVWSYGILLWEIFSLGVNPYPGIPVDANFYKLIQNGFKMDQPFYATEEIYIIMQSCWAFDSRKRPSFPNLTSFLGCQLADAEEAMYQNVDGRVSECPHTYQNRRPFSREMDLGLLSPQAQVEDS
# MLK3/MAP3K11, sequence (Q16584 whole entry): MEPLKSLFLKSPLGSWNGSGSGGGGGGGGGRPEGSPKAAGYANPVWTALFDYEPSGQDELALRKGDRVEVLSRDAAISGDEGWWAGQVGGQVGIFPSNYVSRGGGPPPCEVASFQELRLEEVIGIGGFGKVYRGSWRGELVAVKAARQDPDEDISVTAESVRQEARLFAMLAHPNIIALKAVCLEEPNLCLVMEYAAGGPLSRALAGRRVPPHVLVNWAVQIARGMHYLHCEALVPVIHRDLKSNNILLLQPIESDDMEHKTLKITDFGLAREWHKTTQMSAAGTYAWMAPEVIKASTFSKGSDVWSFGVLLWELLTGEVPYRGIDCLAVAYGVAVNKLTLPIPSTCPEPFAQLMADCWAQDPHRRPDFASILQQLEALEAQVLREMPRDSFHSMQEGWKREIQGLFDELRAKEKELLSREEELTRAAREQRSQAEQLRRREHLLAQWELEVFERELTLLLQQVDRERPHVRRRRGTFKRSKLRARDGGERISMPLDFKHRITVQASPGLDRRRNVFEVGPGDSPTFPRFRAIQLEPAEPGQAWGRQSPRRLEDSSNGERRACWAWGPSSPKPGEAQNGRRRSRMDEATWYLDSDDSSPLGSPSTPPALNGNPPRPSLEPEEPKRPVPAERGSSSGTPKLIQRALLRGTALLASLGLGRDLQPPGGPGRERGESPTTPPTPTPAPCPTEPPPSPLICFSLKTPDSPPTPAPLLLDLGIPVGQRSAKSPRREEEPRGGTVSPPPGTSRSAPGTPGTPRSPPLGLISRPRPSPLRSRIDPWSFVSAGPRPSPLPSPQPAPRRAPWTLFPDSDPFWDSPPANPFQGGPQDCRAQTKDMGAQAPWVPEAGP
# TNIK/MAP4K7, sequence (Q9UKE5 whole entry): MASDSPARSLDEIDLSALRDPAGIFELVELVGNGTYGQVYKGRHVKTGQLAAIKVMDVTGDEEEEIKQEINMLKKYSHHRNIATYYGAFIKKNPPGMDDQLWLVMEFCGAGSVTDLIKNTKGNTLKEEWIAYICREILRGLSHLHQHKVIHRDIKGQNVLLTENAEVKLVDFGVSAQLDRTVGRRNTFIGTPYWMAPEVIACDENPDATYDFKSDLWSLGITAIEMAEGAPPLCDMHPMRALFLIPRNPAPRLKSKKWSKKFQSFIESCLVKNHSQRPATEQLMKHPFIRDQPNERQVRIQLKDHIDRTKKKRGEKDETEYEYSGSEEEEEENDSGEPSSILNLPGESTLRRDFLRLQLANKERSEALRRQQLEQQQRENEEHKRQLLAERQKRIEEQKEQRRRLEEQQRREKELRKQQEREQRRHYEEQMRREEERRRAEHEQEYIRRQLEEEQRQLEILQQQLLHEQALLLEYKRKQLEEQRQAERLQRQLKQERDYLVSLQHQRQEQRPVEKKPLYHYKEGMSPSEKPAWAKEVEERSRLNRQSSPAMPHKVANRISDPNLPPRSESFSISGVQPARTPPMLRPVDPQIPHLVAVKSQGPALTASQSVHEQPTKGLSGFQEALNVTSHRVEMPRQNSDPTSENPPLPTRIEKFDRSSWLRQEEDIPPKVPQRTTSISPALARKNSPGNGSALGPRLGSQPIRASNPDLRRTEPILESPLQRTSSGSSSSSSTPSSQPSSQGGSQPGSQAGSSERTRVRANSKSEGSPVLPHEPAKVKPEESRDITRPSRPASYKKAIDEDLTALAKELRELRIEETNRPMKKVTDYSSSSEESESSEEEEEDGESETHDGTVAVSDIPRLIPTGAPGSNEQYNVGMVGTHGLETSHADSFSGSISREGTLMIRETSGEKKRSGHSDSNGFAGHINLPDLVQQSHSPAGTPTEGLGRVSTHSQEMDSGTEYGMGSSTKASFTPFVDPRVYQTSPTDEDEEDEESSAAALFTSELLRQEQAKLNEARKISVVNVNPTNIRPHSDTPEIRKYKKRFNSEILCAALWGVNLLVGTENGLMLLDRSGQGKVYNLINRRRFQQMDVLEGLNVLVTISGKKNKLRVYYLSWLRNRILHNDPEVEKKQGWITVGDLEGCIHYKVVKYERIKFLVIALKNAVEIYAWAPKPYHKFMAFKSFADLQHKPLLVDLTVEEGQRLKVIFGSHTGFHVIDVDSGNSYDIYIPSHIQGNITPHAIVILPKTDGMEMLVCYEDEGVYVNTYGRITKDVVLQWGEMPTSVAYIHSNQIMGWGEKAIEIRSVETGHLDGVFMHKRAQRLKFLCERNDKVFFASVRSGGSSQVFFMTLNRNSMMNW
# GSK3β, sequence (P49841 whole entry, species assumed): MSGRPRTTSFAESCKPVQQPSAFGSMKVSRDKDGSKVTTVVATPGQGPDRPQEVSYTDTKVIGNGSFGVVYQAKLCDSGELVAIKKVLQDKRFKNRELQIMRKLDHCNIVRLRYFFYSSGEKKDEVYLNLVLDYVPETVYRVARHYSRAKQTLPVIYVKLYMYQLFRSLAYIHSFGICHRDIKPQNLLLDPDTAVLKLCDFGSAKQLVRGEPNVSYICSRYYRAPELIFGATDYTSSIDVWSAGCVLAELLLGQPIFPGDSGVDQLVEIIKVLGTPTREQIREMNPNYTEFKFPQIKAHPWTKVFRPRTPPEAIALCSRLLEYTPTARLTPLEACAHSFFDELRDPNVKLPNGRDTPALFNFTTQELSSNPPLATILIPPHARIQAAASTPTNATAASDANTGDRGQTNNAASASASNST
smiles,measurement,setting,value
COc1cccc(-c2cn(-c3ccccc3)c3nc[nH]c(=O)c23)c1 [Ex-22],IC50,[1]; [3],100 to 1000 nM
same,IC50,[1]; [4],158 nM
same,IC50,MINK1/MAP4K6,6.61 nM
same,IC50,TNIK/MAP4K7,200 nM
same,fold selectivity for MAP4K4 over GCK/MAP4K2,GCK/MAP4K2,(50) fold
same,IC50,GCK/MAP4K2,7940 nM
same,fold selectivity for MAP4K4 over GLK/MAP4K3,GLK/MAP4K3,(199) fold
same,IC50,GLK/MAP4K3,31600 nM
same,fold selectivity for MAP4K4 over KHS/MAP4K5,KHS/MAP4K5,(199) fold
same,IC50,KHS/MAP4K5,437 nM
same,fold selectivity for MAP4K4 over ABL1,ABL1,(199) fold
same,IC50,ABL1,31600 nM
same,fold selectivity for MAP4K4 over Aurora B,Aurora B,(199) fold
same,IC50,Aurora B,31600 nM
same,fold selectivity for MAP4K4 over FLT3,FLT3,(199) fold
same,IC50,FLT3,31600 nM
same,fold selectivity for MAP4K4 over GSK3β,GSK3β,(199) fold
same,IC50,GSK3β,31600 nM
same,fold selectivity for MAP4K4 over MLK1/MAP3K9,MLK1/MAP3K9,(25) fold
same,IC50,MLK1/MAP3K9,3980 nM
same,fold selectivity for MAP4K4 over MLK3/MAP3K11,MLK3/MAP3K11,(199) fold
same,IC50,MLK3/MAP3K11,31600 nM
same,fold selectivity for MAP4K4 over VEGFR,VEGFR,(79) fold
same,pIC50 VEGFR,VEGFR,4.9
O=c1[nH]cnc2c1c(-c1ccc(OCCCN3CCOCC3)cc1)cn2-c1ccccc1 [Ex-27],IC50,[1]; [3],≤ 100 nM
same,IC50,[1]; [4],6.31 nM
same,IC50,MINK1/MAP4K6,6.31 nM
same,IC50,TNIK/MAP4K7,10 nM
same,fold selectivity for MAP4K4 over GCK/MAP4K2,GCK/MAP4K2,(31) fold
same,IC50,GCK/MAP4K2,200 nM
same,fold selectivity for MAP4K4 over GLK/MAP4K3,GLK/MAP4K3,(251) fold
same,IC50,GLK/MAP4K3,1580 nM
same,fold selectivity for MAP4K4 over KHS/MAP4K5,KHS/MAP4K5,(6) fold
same,IC50,KHS/MAP4K5,39.8 nM
same,fold selectivity for MAP4K4 over ABL1,ABL1,(501) fold
same,IC50,ABL1,3160 nM
same,fold selectivity for MAP4K4 over Aurora B,Aurora B,(1584) fold
same,IC50,Aurora B,10000 nM
same,fold selectivity for MAP4K4 over FLT3,FLT3,(1258) fold
same,IC50,FLT3,7940 nM
same,fold selectivity for MAP4K4 over GSK3β,GSK3β,(5011) fold
same,IC50,GSK3β,31600 nM
same,fold selectivity for MAP4K4 over MLK1/MAP3K9,MLK1/MAP3K9,(13) fold
same,IC50,MLK1/MAP3K9,79.4 nM
same,fold selectivity for MAP4K4 over VEGFR,VEGFR,(125) fold
same,pIC50 VEGFR,VEGFR,6.1
"CC(C)(O)CCOc1ccc(-c2cn(-c3ccccc3)c3nc[nH]c(=O)c23)cc1 [Ex-40, 5-(4-(3-hydroxy-3-methylbutoxy)phenyl)-7-phenyl-3,7-dihydro-4H-pyrrolo[2,3-d]pyrimidin-4-one]",IC50,[1]; [3],≤ 100 nM
same,EC50,[2],< 1000 nM
"O=c1[nH]cnc2c1c(-c1ccc(OCCO)cc1F)cn2-c1ccccc1 [Ex-56, 5-[2-Fluoro-4-(2-hydroxy-ethoxy)-phenyl]-7-phenyl-3,7-dihydro-pyrrolo[2,3-d]pyrimidin-4-one]",IC50,[1]; [3],≤ 100 nM
same,IC50,[1]; [4],5.01 nM
same,IC50,MINK1/MAP4K6,7.94 nM
same,IC50,TNIK/MAP4K7,20 nM
same,fold selectivity for MAP4K4 over GCK/MAP4K2,GCK/MAP4K2,(79) fold
same,IC50,GCK/MAP4K2,398 nM
same,fold selectivity for MAP4K4 over GLK/MAP4K3,GLK/MAP4K3,(6309) fold
same,IC50,GLK/MAP4K3,31600 nM
same,fold selectivity for MAP4K4 over KHS/MAP4K5,KHS/MAP4K5,(199) fold
same,IC50,KHS/MAP4K5,1000 nM
same,fold selectivity for MAP4K4 over ABL1,ABL1,(398) fold
same,IC50,ABL1,2000 nM
same,fold selectivity for MAP4K4 over Aurora B,Aurora B,(1258) fold
same,IC50,Aurora B,6310 nM
same,fold selectivity for MAP4K4 over FLT3,FLT3,(3162) fold
same,IC50,FLT3,15800 nM
same,fold selectivity for MAP4K4 over MLK1/MAP3K9,MLK1/MAP3K9,(39) fold
same,IC50,MLK1/MAP3K9,200 nM
same,fold selectivity for MAP4K4 over MLK3/MAP3K11,MLK3/MAP3K11,(39) fold
same,IC50,MLK3/MAP3K11,200 nM
same,fold selectivity for MAP4K4 over NUAK,NUAK,(501) fold
same,pIC50 NUAK,NUAK,5.6
same,fold selectivity for MAP4K4 over VEGFR,VEGFR,(6309) fold
same,pIC50 VEGFR,VEGFR,4.5
"NC(=O)Cc1ccc(-c2cn(-c3ccccc3)c3nc[nH]c(=O)c23)cc1 [Ex-83, 2-[4-(4-Oxo-7-phenyl-4,7-dihydro-3H-pyrrolo[2,3-d]pyrimidin-5-yl)-phenyl]-acetamide]",IC50,[1]; [3],≤ 100 nM
"O=c1[nH]cnc2c(-c3ccc(OCCCN4CCOCC4)cc3)cn(-c3ccccc3)c12 [Ex-84, 7-[4-(3-Morpholin-4-yl-propoxy)-phenyl]-5-phenyl-3,5-dihydro-pyrrolo[3,2-d]pyrimidin-4-one]",IC50,[1]; [3],100 to 1000 nM
COc1ccc(-n2cc(-c3ccc(OCCCN(C)C)cc3)c3nc[nH]c(=O)c32)cc1 [Ex-85],IC50,[1]; [3],≤ 100 nM
CN1CCC(Oc2ccc(-c3cn(-c4ccccc4)c4c(=O)[nH]cnc34)cc2)CC1 [Ex-86],IC50,[1]; [3],≤ 100 nM
CC(C)(O)COc1ccc(-c2cn(-c3ccccc3)c3c(=O)[nH]cnc23)cc1 [Ex-87],IC50,[1]; [3],> 1000 nM
"O=c1[nH]cnc2c(-c3ccc(OCC(O)CO)cc3)cn(-c3ccccc3)c12 (centres unmarked) [Ex-88, 7-[4-(2,3-Dihydroxypropoxy)-phenyl]-5-phenyl-3,5-dihydropyrrolo[3,2-d]pyrimidin-4-one]",IC50,[1]; [3],100 to 1000 nM
O=c1[nH]cnc2c(-c3ccc(OCC(O)CN4CCOCC4)cc3)cn(-c3ccccc3)c12 (centres unmarked) [Ex-89],IC50,[1]; [3],100 to 1000 nM
CN(CC(O)COc1ccc(-c2cn(-c3ccccc3)c3c(=O)[nH]cnc23)cc1)C1CC1 (centres unmarked) [Ex-90],IC50,[1]; [3],100 to 1000 nM
O=c1[nH]cnc2c(-c3ccc(OCC(O)CN4CCCC4)cc3)cn(-c3ccccc3)c12 (centres unmarked) [Ex-91],IC50,[1]; [3],100 to 1000 nM
C[C@@H](O)COc1ccc(-c2cn(-c3ccccc3)c3c(=O)[nH]cnc23)cc1 [Ex-92],IC50,[1]; [3],100 to 1000 nM
C[C@H](O)COc1ccc(-c2cn(-c3ccccc3)c3c(=O)[nH]cnc23)cc1 [Ex-93],IC50,[1]; [3],> 1000 nM
"O=c1[nH]cnc2c(-c3ccc(OCC4CCNC4)cc3)cn(-c3ccccc3)c12 (centres unmarked) [Ex-94, 5-Phenyl-7-[4-(pyrrolidin-3-ylmethoxy)-phenyl]-3,5-dihydro-pyrrolo[3,2-d]pyrimidin-4-one]",IC50,[1]; [3],> 1000 nM
"CN1CCC(COc2ccc(-c3cn(-c4ccccc4)c4c(=O)[nH]cnc34)cc2)C1 (centres unmarked) [Ex-95, 7-[4-(1-Methyl-pyrrolidin-3-ylmethoxy)-phenyl]-5-phenyl-3,5-dihydro-pyrrolo[3,2-d]pyrimidin-4-one]",IC50,[1]; [3],> 1000 nM
"CCOC(=O)c1cccc(-c2cn(-c3ccccc3)c3c(=O)[nH]cnc23)c1 [Ex-96, 3-(4-Oxo-5-phenyl-4,5-dihydro-3H-pyrrolo[3,2-d]pyrimidin-7-yl)-benzoic acid ethyl ester]",IC50,[1]; [3],> 1000 nM
O=c1[nH]cnc2c(-c3ccccc3)cn(-c3ccccc3)c12 [Ex-97],IC50,[1]; [3],≤ 100 nM
CCOC(=O)c1ccc(-c2cn(-c3ccccc3)c3c(=O)[nH]cnc23)cc1 [Ex-98],IC50,[1]; [3],> 1000 nM
N#Cc1ccc(-c2cn(-c3ccccc3)c3c(=O)[nH]cnc23)cc1 [Ex-99],IC50,[1]; [3],100 to 1000 nM
N#Cc1cccc(-c2cn(-c3ccccc3)c3c(=O)[nH]cnc23)c1 [Ex-100],IC50,[1]; [3],100 to 1000 nM
"O=C(O)c1cccc(-c2cn(-c3ccccc3)c3c(=O)[nH]cnc23)c1 [Ex-101, 3-(4-Oxo-5-phenyl-4,5-dihydro-3H-pyrrolo[3,2-d]pyrimidin-7-yl)-benzoic acid]",IC50,[1]; [3],> 1000 nM
O=C(O)c1ccc(-c2cn(-c3ccccc3)c3c(=O)[nH]cnc23)cc1 [Ex-102],IC50,[1]; [3],100 to 1000 nM
"CC(C)(O)CCOc1ccc(-c2cn(-c3ccccc3)c3nc[nH]c(=O)c23)c(F)c1 [Ex-107, 5-(2-fluoro-4-(3-hydroxy-3-methylbutoxy)phenyl)-7-phenyl-3,7-dihydro-4H-pyrrolo[2,3-d]pyrimidin-4-one]",EC50,[2],< 1000 nM
CC(C)(O)CCOc1ccc(-c2cn(-c3ccccc3)c3nc[nH]c(=O)c23)cc1F [Ex-123],EC50,[2],< 1000 nM
CC(C)(O)CCOc1ccc(-c2cn(-c3ccccc3)c3nc[nH]c(=O)c23)cc1C#N [Ex-128],EC50,[2],< 1000 nM
